The values that follow come from patent US8828442B2, “Pharmaceutical solid dispersions” (Bend Research, Inc., priority 1999, dated 2014).

This data set is described as follows: In vitro dissolution test in Model Fasted Duodenal (MFD) solution, before storage. It counts as physicochemical. The settings on record: before aging; for AUC90 fresh: AUC from 0 to 90 minutes, MFD solution; for MDC fresh: maximum drug concentration, MFD solution pH 6.5, 37° C. The source says:
The concentration of dissolved drug is typically measured as a function of time by sampling the drug and plotting concentration vs. time so that the MDC can be ascertained. To avoid drug particulates which would give an erroneous determination, the test solution is either filtered or centrifuged. “Dissolved drug” is typically taken as that material that either passes a 0.45 μm syringe filter or, alternatively, the material that remains in the supernatant following centrifugation. Filtration can be conducted using a 13 mm, 0.45 μm polyvinylidine difluoride syringe filter sold by Scientific Resources under the trademark TITAN®. Centrifugation is typically carried out in a polypropylene microcentrifuge tube by centrifuging at 13,000 G for 60 seconds. Other similar filtration or centrifugation methods can be employed and useful results obtained. For example, using other types of microfilters may yield values somewhat higher or lower (±10-40%) than that obtained with the filter specified above but will still allow identification of preferred dispersions. It is recognized that this definition of “dissolved drug” encompasses not only monomeric solvated drug molecules but also a wide range of species such as polymer/drug assemblies that have submicron dimensions such as drug aggregates, aggregates of mixtures of polymer and drug, micelles, polymeric micelles, colloidal particles or nanocrystals, polymer/drug complexes, and other such drug-containing species that are present in the filtrate or supernatant in the specified dissolution test.
Dissolution performance of the material from Example 1, before exposure to increased temperature and humidity, was measured as follows. In a 37° C. controlled temperature box, 3.0 mg of the material of Example 1 was inserted into a polypropylene microcentrifuge tube (Sorenson Bioscience Inc.). The theoretical MDC in solution (i.e., if all drug dissolved) was 490 μg/ml [(3.0 mg×1000 μg/mg)×(0.33 g drug/g dispersion)×0.90 salt factor×0.98 drug assay/1.8 ml=490 μg/ml]. […] The tube was closed and a timer was started. […] Each sample was centrifuged, sampled and resuspended as described, then diluted with 250 μL HPLC grade methanol (Burdick & Jackson) and the concentration of drug was determined by HPLC. Samples were taken after 4, 10, 20, 40, and 90 minutes, analyzed, and drug concentrations for each time point were calculated. […]
In addition, the AUC90 value was calculated for Example 1. […] AUC between two individual time points within the curve was determined as follows. […] AUC90 is determined by calculating the sum of these areas defined by the drug concentrations observed at t1 and t2 equal to: 0 and 4 minutes, 4 and 10 minutes, 10 and 20 minutes, 20 and 40 minutes, and 40 and 90 minutes.

Take `CCC(CC)Nc1cc(C)nc(Oc2c(C)cc(C)cc2C)c1C` [Comparative Example C10, [3,6-Dimethyl-2-(2,4,6-trimethyl-phenoxy)-pyridin-4-yl]-(1-ethyl-propyl)-amine]: the AUC90 fresh is 23300 ng·h/mL and the MDC fresh was 22 µg/mL.
The corresponding values for `CCC(CC)Nc1cc(C)nc(Oc2c(C)cc(C)cc2C)c1C.Cl` [Comparative Example C9, [3,6-Dimethyl-2-(2,4,6-trimethyl-phenoxy)-pyridin-4-yl]-(1-ethyl-propyl)-amine hydrogen chloride] are 165000 ng·h/mL and 135 µg/mL.
